Measured values: patent US20040018991A1, “Topical treatment for mastalgia” (priority 2000, published 2004)

Assay: healing test: topical 4-hydroxy-androstenedione cream applied to the breasts of patients with mastalgia
Format: in vivo, human
Description: Treatments acting with 4-hydroxy-androstenedione for mastalgia syndrome are described, wherein instead of 4-hydroxy-androstenedione, other aromatase inhibitors may be used.
Findings: Tension-related pains in both breasts occurring 3 to 5 days before each menstruation, apparently bundled shooting into the breast nipples. Then slowly decreasing pains, symptoms and signs and tension states during the menstruation period until about the 10th day after onset of menstruation.
A cream treated with 0.5 wt. % of 4-hydroxy-androstenedione was used (0.5% of 4OH-androstenedione introduced into 100 ml of ash-based cream). 4 g were administered daily, and specifically 2 g applied externally to each breast and carefully massaged in.
Start of healing test about 3 weeks before the period.
Continuation of the healing test with daily administration of 4-OH-androstenedione cream 0.5% strength.
Findings: For years, severe swelling and tension feeling occurring in each case 3-5 days before menstruation with diffuse pain symptoms and signs radiating into the thorax, which is almost unbearable until the onset of menstruation. For years, unable to work 1-3 days per month due to these pains. Disappearance of symptoms and signs only on 8th-12th day after onset of menstruation.
Healing test using 1% strength 4-OH-androstenedione cream (1 g of 4-OH-androstenedione introduced into 100 ml of ash-based cream).
Dose 1×daily 4 g, in each case 2 g applied to each breast.
The start of the healing test took place about 2 weeks before onset of menstruation.
Continuation of the healing test using 0.5% strength 4-OH-androstenedione cream (0.5 g of 4-OH-androstenedione introduced into 100 ml of ash-based cream) 4 g daily, that is 2 g applied to each breast.

[1] = Example 2, 1% strength cream, 1x daily 4 g, subsequent period 2
[2] = Example 2, continuation with 0.5% strength cream, 4 g daily, subsequent periods

SMILES: C[C@]12CCC(=O)C(O)=C1CC[C@@H]1[C@@H]2CC[C@]2(C)C(=O)CC[C@@H]12 [4-hydroxy-androstenedione, 4-hydroxyandrostenedione]
- tension pain (Example 1, person, 0.5 wt. % cream, 4 g daily (2 g each breast), first subsequent period): Significantly reduced tension pain
- pain (Example 1, 0.5% strength cream daily, second subsequent period): complete freedom from pain
- course of symptoms and signs (Example 1, 0.5 wt. % cream, 4 g daily, first subsequent period): symptoms and signs subsided more rapidly
- time to pain-free after start of menstruation (Example 1, 0.5 wt. % cream, 4 g daily, first subsequent period (before treatment until about the 10th day)): 5 days
- course of mastalgia (Example 2, person, 1% strength cream, 1x daily 4 g, subsequent period 1): somewhat blander course
- inability to work (Example 2, 1% strength cream, 1x daily 4 g, subsequent period 1 (before treatment 1-3 days per month)): 1 days
- inability to work [1]: no inability to work
- pain symptoms and signs [1]: considerably lower pain symptoms and signs
- swelling and tension feeling [1]: Significantly lower swelling and tension feeling
- mastopathy-related inability to work [2]: no mastopathy-related inability to work
- pain [2]: practically pain-free
- swelling and tension feelings [2]: Hardly any swelling and tension feelings
